How the values were obtained:
blackgrass = assay: Test B pre/postemergence blackgrass; format: in vivo, Alopecurus myosuroides; conditions: for Plant response rating, Blackgrass: Preemergence; for Blackgrass plant response rating: Postemergence, scale 0 to 10, 0 is no effect, 10 is complete control
Summary of the method: (§1)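 Herbicidal effect was estimated by eye on a ten-point control scale after plants spent twelve to sixteen days in a greenhouse following soil or foliar treatment. Foliar sprays targeted plants at one to four leaves; all doses were formulated in a non-phytotoxic solvent with surfactant.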

wild oat = assay: Test B pre/postemergence wild oat; format: in vivo, Avena fatua; conditions: for Wild oats plant response rating: Postemergence; for Plant response rating, Wild oats: Preemergence
Summary of the method: as §1

pigweed = assay: Test B pre/postemergence pigweed; format: in vivo, Amaranthus retroflexus; conditions: for Redroot pigweed plant response rating: Postemergence; for Plant response rating, Redroot pigweed: Preemergence
Summary of the method: as §1

wheat = assay: Test B pre/postemergence wheat; format: in vivo, Triticum aestivum; conditions: for Wheat plant response rating: Postemergence; for Plant response rating, Wheat: Preemergence
Summary of the method: as §1

rape = assay: Test B pre/postemergence rape; format: in vivo, Brassica napus; conditions: for Rape plant response rating: Postemergence; for Plant response rating, Rape: Preemergence
Summary of the method: as §1

rice = assay: Test B flood test rice; format: in vivo, Oryza sativa
Summary of the method: (§2)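 Plants were grown to the 2-leaf stage before treatment with test chemical, then held in a greenhouse for twelve to sixteen days. Injury was visually rated against untreated controls on a 0–10 scale, where 0 is no effect and 10 is complete control.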

bedstraw = assay: Test B pre/postemergence bedstraw; format: in vivo, Galium aparine; conditions: Postemergence
Summary of the method: as §1

giant foxtail = assay: Test B pre/postemergence giant foxtail; format: in vivo, Setaria faberii; conditions: for Giant foxtail plant response rating: Postemergence; for Plant response rating, Giant foxtail: Preemergence
Summary of the method: as §1

morningglory = assay: Test B pre/postemergence morningglory; format: in vivo, Ipomoea hederacea; conditions: for Morningglory plant response rating: Postemergence; for Plant response rating, Morningglory: Preemergence
Summary of the method: as §1

bamyardgrass = assay: Test B flood test barnyardgrass; format: in vivo, Echinochloa crus-galli
Summary of the method: as §2

smallflower flatsedge = assay: Test B flood test smallflower flatsedge; format: in vivo, Cyperus difformis
Summary of the method: as §2

[1] = Rate 125 g/ha, scale of 0 to 10 where 0 is no effect and 10 is complete control
[2] = Rate 500 g/ha, scale of 0 to 10 where 0 is no effect and 10 is complete control
[3] = Rate 1000 g/ha, scale 0 to 10 (0 no effect, 10 complete control)
[4] = Rate 250 g/ha, scale 0 to 10, 0 is no effect, 10 is complete control
[5] = Rate 500 g/ha, scale 0 to 10, 0 is no effect, 10 is complete control
[6] = Pre-emergence, Rate 1000 g/ha, scale 0 to 10 (0 no effect, 10 complete control)
[7] = Rate 125 g/ha, under heading Pre-emergence, flood test species, visual evaluation after twelve to sixteen days
[8] = Rate 250 g/ha, Pre-emergence (flood test species), scale 0 to 10, 0 is no effect, 10 is complete control
[9] = Rate 500 g/ha, Pre-emergence section of Table B, 0 to 10 scale (0 no effect, 10 complete control)

COC(=O)C(CCO)n1c(=O)on(C(=O)N(c2ccccc2)C(C)C)c1=O (stereo not shown) [Compound 678]
Plant response rating, Blackgrass (blackgrass; [1]): 0 | Plant response rating, Blackgrass (blackgrass; Rate 250 g/ha, scale 0 to 10 (0 no effect, 10 complete control)): 0 | Plant response rating, Blackgrass (blackgrass; [2]): 0 | Blackgrass plant response rating (blackgrass; Rate 250 g/ha): 0 | Blackgrass plant response rating (blackgrass; Rate 500 g/ha): 3 | Plant response rating, Blackgrass (blackgrass; [3]): 1 | Wild oats plant response rating (wild oat; [1]): 0 | Plant response rating, Wild oats (wild oat; [1]): 0 | Plant response rating, Wild oats (wild oat; [2]): 0 | Wild oats plant response rating (wild oat; [4]): 0 | Wild oats plant response rating (wild oat; [5]): 0 | Plant response rating, Wild oats (wild oat; [3]): 0 | Redroot pigweed plant response rating (pigweed; [1]): 0 | Redroot pigweed plant response rating (pigweed; [3]): 5 | Plant response rating, Redroot pigweed (pigweed; [1]): 0 | Plant response rating, Redroot pigweed (pigweed; [2]): 0 | Redroot pigweed plant response rating (pigweed; [4]): 0 | Redroot pigweed plant response rating (pigweed; [5]): 2 | Plant response rating, Redroot pigweed (pigweed; [3]): 4 | Wheat plant response rating (wheat; [1]): 0 | Plant response rating, Wheat (wheat; [1]): 0 | Plant response rating, Wheat (wheat; [2]): 0 | Wheat plant response rating (wheat; [4]): 0 | Wheat plant response rating (wheat; [5]): 0 | Plant response rating, Wheat (wheat; [3]): 0 | Rape plant response rating (rape; [1]): 0 | Rape plant response rating (rape; [3]): 2 | Plant response rating, Rape (rape; [1]): 0 | Plant response rating, Rape (rape; [2]): 0 | Rape plant response rating (rape; [4]): 0 | Rape plant response rating (rape; [5]): 0 | Plant response rating, Rape (rape; [3]): 0 | Rice plant response rating (rice; [6]): 0 | Rice plant response rating (0 to 10 scale, 0 is no effect, 10 is complete control) (rice; [7]): 0 | Rice plant response rating (rice; [8]): 0 | Rice plant response rating (rice; [9]): 0 | Bedstraw plant response rating (bedstraw; [1]): 0 | Bedstraw plant response rating (bedstraw; [3]): 0 | Bedstraw plant response rating (bedstraw; [4]): 0 | Bedstraw plant response rating (bedstraw; [5]): 0 | Giant foxtail plant response rating (giant foxtail; [1]): 0 | Giant foxtail plant response rating (giant foxtail; [3]): 7 | Plant response rating, Giant foxtail (giant foxtail; [1]): 0 | Plant response rating, Giant foxtail (giant foxtail; [2]): 4 | Giant foxtail plant response rating (giant foxtail; [4]): 1 | Giant foxtail plant response rating (giant foxtail; [5]): 6 | Plant response rating, Giant foxtail (giant foxtail; [3]): 6 | Morningglory plant response rating (morningglory; [1]): 6 | Plant response rating, Morningglory (morningglory; [1]): 0 | Plant response rating, Morningglory (morningglory; [2]): 0 | Morningglory plant response rating (morningglory; [4]): 6 | Morningglory plant response rating (morningglory; [5]): 8 | Plant response rating, Morningglory (morningglory; [3]): 1 | Barnyardgrass plant response rating (bamyardgrass; [6]): 0 | Barnyardgrass plant response rating (0 to 10 scale, 0 is no effect, 10 is complete control) (bamyardgrass; [7]): 0 | Barnyardgrass plant response rating (bamyardgrass; [8]): 0 | Barnyardgrass plant response rating (bamyardgrass; [9]): 0 | S. Flatsedge plant response rating (smallflower flatsedge; [6]): 0 | S. Flatsedge plant response rating (0 to 10 scale, 0 is no effect, 10 is complete control) (smallflower flatsedge; [7]): 0 | S. Flatsedge plant response rating (smallflower flatsedge; [8]): 0 | S. Flatsedge plant response rating (smallflower flatsedge; [9]): 0

Reference: patent US6737383B1, “Herbicidal oxadiazolidines” (priority 1999, dated 2004)
